In one assay the test system is DU-145. The assay is described as follows: Antiproliferative activity against human DU145 cells assessed as reduction in cell viability after 48 hrs by SRB assay. Format: functional, cell-based. To be noted: DU-145, 48 h.
Another assay concerns A549. The assay is described as follows: Antiproliferative activity against human A549 cells assessed as reduction in cell viability after 48 hrs by SRB assay. Format: functional, cell-based. The conditions noted are these: A549, 48 h.
A further assay concerns HeLa. The assay is described as follows: Antiproliferative activity against human HeLa cells assessed as reduction in cell viability after 48 hrs by SRB assay. Format: functional, cell-based.
The test system of assay [1] is Calf thymus DNA. The assay is described as follows: Binding affinity to calf thymus DNA assessed as hypochromicity after 5 mins by UV-Vis absorption spectral analysis. The class given is nucleic-acid assay. The conditions noted are these: Bos taurus.
Assay [2] has as its system Calf thymus DNA. Kind of assay: Binding affinity to calf thymus DNA assessed as decrease in emission peak intensity by spectrofluorimetric method. The class given is nucleic-acid assay. To be noted: Bos taurus.
Assay [3] relates to Calf thymus DNA. Kind of assay: Binding affinity to calf thymus DNA by circular dichroism spectropolarimetric analysis. The conditions noted are these: Bos taurus. The class given is nucleic-acid assay.
The test system of assay [4] is Calf thymus DNA. The assay is described as follows: Binding affinity to calf thymus DNA assessed as dissociation constant after 5 mins by UV-Visible spectroscopic method. Format: nucleic-acid assay, Bos taurus.
Assay [5] concerns the target DNA topoisomerase II (Homo sapiens) (UniProt P11388+Q02880). Kind of assay: Inhibition of human topoisomerase-2 assessed as reduction in decatenation of kDNA at 10 uM incubated for 30 mins by ethidium bromide staining based agarose gel electrophoresis method. Format: protein assay.
Assay [6] deals with Calf thymus DNA. The assay is described as follows: Binding affinity to calf thymus DNA assessed as decrease in emission peak intensity using varying DNA level by spectrofluorimetric method. Format: nucleic-acid assay. The conditions noted are these: Bos taurus.

Active and inactive are the calls of the source. The calls are words filed in the database; no cut-off is given here.

As to `COc1ccc(-c2nc(CNC(=O)/C(=C/c3ccc(C)cc3)c3cc(OC)c(OC)c(OC)c3)cc3c2[nH]c2ccccc23)cc1`, the results for the IC50 with DU-145, in the assay on A549 and in the assay with HeLa were 2.57 µM, 1.38 µM and 14.5 µM, respectively.

For the compound `COc1ccc(-c2nc(CNC(=O)/C(=C/c3ccc(C(F)(F)F)cc3)c3cc(OC)c(OC)c(OC)c3)cc3c2[nH]c2ccccc23)cc1`, the figures for the IC50 with DU-145, in the assay on A549 and in the assay on HeLa were 1.37 µM, 1.17 µM and 3.16 µM, respectively. The result in the assay with Calf thymus DNA [1], with Calf thymus DNA [2], with Calf thymus DNA [3] and with Calf thymus DNA [6] was Active. Besides, the Kd in the assay with Calf thymus DNA [4] stood at 112 µM. Besides, the inhibition entry in assay [5] is “Active”.

Consider `COc1cc(/C=C(/C(=O)NCc2cc3c([nH]c4ccccc43)c(-c3cccc(F)c3)n2)c2cc(OC)c(OC)c(OC)c2)cc(OC)c1OC`, for which the IC50 in the assay with DU-145 was 9.84 µM; in the assay with A549, 12.3 µM; in the assay with HeLa, 23.8 µM.

On to `COc1ccc(-c2nc(CNC(=O)/C(=C/c3ccc(OC)c(OC(C)=O)c3)c3cc(OC)c(OC)c(OC)c3)cc3c2[nH]c2ccccc23)cc1`, for which the IC50 with DU-145 amounted to 3.54 µM; in the assay on A549 it was 2.75 µM; with HeLa, 8.41 µM.

For the compound `COc1ccc(/C=C(/C(=O)NCc2cc3c([nH]c4ccccc43)c(-c3cc(OC)c(OC)c(OC)c3)n2)c2cc(OC)c(OC)c(OC)c2)cc1OC(C)=O`, the 50% inhibitory concentration (IC50) in the assay on DU-145 was found to be 7.06 µM; in the assay on A549 it was 1.16 µM; in the assay on HeLa, 18 µM.

As for `COc1ccc(/C=C(/C(=O)NCc2cc3c([nH]c4ccccc43)c(-c3cc(OC)c(OC)c(OC)c3)n2)c2cc(OC)c(OC)c(OC)c2)cc1`, the values for the IC50 in the assay on DU-145, in the assay on A549 and in the assay on HeLa were 6.67 µM, 2.23 µM and 19.5 µM, respectively.

`COc1cc(/C=C(/C(=O)NCc2cc3c([nH]c4ccccc43)c(-c3cc(OC)c(OC)c(OC)c3)n2)c2cc(OC)c(OC)c(OC)c2)cc(OC)c1`: the results for the IC50 with DU-145, in the assay with A549 and in the assay with HeLa were 11.1 µM, 3.38 µM and 29.9 µM, respectively.

Take `CCOc1ccccc1/C=C(/C(=O)NCc1cc2c([nH]c3ccccc32)c(-c2cc(OC)c(OC)c(OC)c2)n1)c1cc(OC)c(OC)c(OC)c1`: the IC50 is 16.1 µM in the assay with DU-145, 18.4 µM in the assay with A549 and 18.2 µM in the assay with HeLa.

Take `COc1ccc(/C=C(/C(=O)NCc2cc3c([nH]c4ccccc43)c(-c3cccc(F)c3)n2)c2cc(OC)c(OC)c(OC)c2)cc1O`: the IC50 in the assay with DU-145 came out at 1.87 µM; in the assay with A549 it was 1.62 µM; with HeLa, 9.68 µM.

Take `CCOc1ccccc1/C=C(/C(=O)NCc1cc2c([nH]c3ccccc32)c(-c2ccc(OC)cc2)n1)c1cc(OC)c(OC)c(OC)c1`: the IC50 in the assay with DU-145 amounted to 10.9 µM; in the assay with A549, 11.7 µM; in the assay on HeLa, 16.3 µM.

With `COc1ccc(-c2nc(CNC(=O)/C(=C/c3ccc(O)c(OC)c3)c3cc(OC)c(OC)c(OC)c3)cc3c2[nH]c2ccccc23)cc1`, the IC50 is 2.81 µM with DU-145, 1.79 µM in the assay on A549 and 6.31 µM in the assay with HeLa.

In the case of `COc1cc(/C=C(/C(=O)NCc2cc3c([nH]c4ccccc43)c(-c3cccc(F)c3)n2)c2cc(OC)c(OC)c(OC)c2)ccc1O`, the IC50 with DU-145 was 2.44 µM; in the assay on A549, 2.55 µM; in the assay on HeLa, 19.1 µM.

Regarding `COc1ccc(-c2nc(CNC(=O)/C(=C/c3cccc(F)c3)c3cc(OC)c(OC)c(OC)c3)cc3c2[nH]c2ccccc23)cc1`, the figures for the IC50 with DU-145, in the assay with A549 and with HeLa were 4.07 µM, 3.54 µM and 27.6 µM, respectively.

Turning to `COc1ccc(-c2nc(CNC(=O)/C(=C/c3cc(OC)cc(OC)c3)c3cc(OC)c(OC)c(OC)c3)cc3c2[nH]c2ccccc23)cc1`, the IC50 in the assay on DU-145 came to 3.09 µM; in the assay with A549, 2.76 µM; with HeLa it was 21.7 µM.

Consider `COc1cc([C@@H]2c3cc4c(cc3[C@@H](O[C@@H]3O[C@@H]5CO[C@@H](C)O[C@H]5[C@H](O)[C@H]3O)[C@H]3COC(=O)[C@H]23)OCO4)cc(OC)c1O` [ETOPOSIDE], for which the values for the IC50 in the assay on DU-145, in the assay on A549 and in the assay with HeLa were 2.47 µM, 2.17 µM and 2.66 µM, respectively.

As to `COc1cc(/C=C(/C(=O)NCc2cc3c([nH]c4ccccc43)c(-c3cc(OC)c(OC)c(OC)c3)n2)c2cc(OC)c(OC)c(OC)c2)ccc1OC(C)=O`, the IC50 with DU-145 amounted to 8.35 µM; in the assay with A549 it was 7.08 µM; with HeLa it was 50.1 µM.

With `COc1cc(/C(=C\c2cccc(F)c2)C(=O)NCc2cc3c([nH]c4ccccc43)c(-c3cccc(F)c3)n2)cc(OC)c1OC`, the IC50 is 3.89 µM in the assay with DU-145, 2.88 µM with A549 and 19.7 µM with HeLa.

Regarding `COc1cc(/C=C(/C(=O)NCc2cc3c([nH]c4ccccc43)c(-c3cc(OC)c(OC)c(OC)c3)n2)c2cc(OC)c(OC)c(OC)c2)cc(OC)c1OC`, the IC50 with DU-145 amounted to 15.7 µM; in the assay on A549, 10.6 µM; in the assay with HeLa it was 36.4 µM.

For the compound `COc1ccc(/C=C(/C(=O)NCc2cc3c([nH]c4ccccc43)c(-c3cc(OC)c(OC)c(OC)c3)n2)c2cc(OC)c(OC)c(OC)c2)cc1O`, the IC50 in the assay on DU-145 worked out at 7.88 µM; in the assay on A549, 7.55 µM; with HeLa it was 23.1 µM.

Take `COc1ccc2c(c1)[nH]c1c(C)nccc12` [HARMINE]: the IC50 with DU-145 stood at 9.63 µM; in the assay on A549, 5.89 µM; in the assay on HeLa, 9.66 µM.

`COc1cc(/C=C(/C(=O)NCc2cc3c([nH]c4ccccc43)c(-c3cc(OC)c(OC)c(OC)c3)n2)c2cc(OC)c(OC)c(OC)c2)ccc1O`: the IC50 in the assay on DU-145 worked out at 13.3 µM; in the assay on A549, 5.27 µM; in the assay on HeLa, 40.7 µM.

For the compound `CCOc1ccccc1/C=C(/C(=O)NCc1cc2c([nH]c3ccccc32)c(-c2cccc(F)c2)n1)c1cc(OC)c(OC)c(OC)c1`, the IC50 in the assay on DU-145 was determined as 2.18 µM; in the assay on A549 it was 2.95 µM; in the assay on HeLa, 14 µM.

Regarding `COc1ccc(-c2nc(CNC(=O)/C(=C/c3ccc(OC(C)=O)c(OC)c3)c3cc(OC)c(OC)c(OC)c3)cc3c2[nH]c2ccccc23)cc1`, the IC50 in the assay with DU-145 was found to be 9.78 µM; in the assay with A549, 5.49 µM; with HeLa it was 11.9 µM.

Consider `COc1cc(/C(=C\c2ccc(Cl)cc2)C(=O)NCc2cc3c([nH]c4ccccc43)c(-c3cccc(F)c3)n2)cc(OC)c1OC`, for which the IC50 in the assay on DU-145 was determined as 8.44 µM; in the assay on A549, 22.2 µM; in the assay with HeLa, 31.3 µM.

With `COc1ccc(-c2nc(CNC(=O)/C(=C/c3ccc(OC)c(O)c3)c3cc(OC)c(OC)c(OC)c3)cc3c2[nH]c2ccccc23)cc1`, the results for the IC50 with DU-145, in the assay with A549 and in the assay on HeLa were 10.2 µM, 3.09 µM and 18 µM, respectively.

Consider `COc1ccc(-c2nc(CNC(=O)/C(=C/c3ccc(Cl)cc3)c3cc(OC)c(OC)c(OC)c3)cc3c2[nH]c2ccccc23)cc1`, for which the IC50 in the assay with DU-145 turned out to be 13 µM; in the assay with A549, 9.65 µM; with HeLa it was 37.5 µM.

In the case of `COc1cc(/C(=C\c2cccc(F)c2)C(=O)NCc2cc3c([nH]c4ccccc43)c(-c3cc(OC)c(OC)c(OC)c3)n2)cc(OC)c1OC`, the figures for the IC50 with DU-145, in the assay on A549 and with HeLa were 15.8 µM, 2.08 µM and 42.2 µM, respectively.

For `COc1cc(/C(=C\c2ccc(C)cc2)C(=O)NCc2cc3c([nH]c4ccccc43)c(-c3cc(OC)c(OC)c(OC)c3)n2)cc(OC)c1OC`, the values for the IC50 with DU-145, with A549 and with HeLa were 2.63 µM, 1.12 µM and 4.46 µM, respectively.

On to `COc1cc(/C(=C\c2ccc(C(F)(F)F)cc2)C(=O)NCc2cc3c([nH]c4ccccc43)c(-c3cc(OC)c(OC)c(OC)c3)n2)cc(OC)c1OC`, for which the values for the IC50 in the assay with DU-145, in the assay with A549 and in the assay with HeLa were 2.04 µM, 1.11 µM and 14.7 µM, respectively.

Take `COc1cc(/C=C(/C(=O)NCc2cc3c([nH]c4ccccc43)c(-c3cccc(F)c3)n2)c2cc(OC)c(OC)c(OC)c2)cc(OC)c1`: the IC50 was 2.57 µM in the assay with DU-145, 1.99 µM in the assay with A549 and 17.2 µM with HeLa.

Turning to `COc1ccc(/C=C(/C(=O)NCc2cc3c([nH]c4ccccc43)c(-c3cccc(F)c3)n2)c2cc(OC)c(OC)c(OC)c2)cc1`, the half-maximal inhibitory concentration (IC50) in the assay on DU-145 turned out to be 12.6 µM; in the assay on A549, 12.9 µM; in the assay on HeLa, 39.5 µM.

With `COc1cc(/C(=C\c2ccc(C)cc2)C(=O)NCc2cc3c([nH]c4ccccc43)c(-c3cccc(F)c3)n2)cc(OC)c1OC`, the concentration for half-maximal inhibition (IC50) in the assay on DU-145 was found to be 1.81 µM; with A549 it was 1.31 µM; in the assay with HeLa it was 14 µM.

In the case of `COc1cc(/C=C(/C(=O)NCc2cc3c([nH]c4ccccc43)c(-c3cccc(F)c3)n2)c2cc(OC)c(OC)c(OC)c2)ccc1OC(C)=O`, the IC50 in the assay on DU-145 turned out to be 11.7 µM; in the assay with A549 it was 14.2 µM; in the assay with HeLa, 26.1 µM.

Turning to `COc1cc(/C(=C\c2ccc(Cl)cc2)C(=O)NCc2cc3c([nH]c4ccccc43)c(-c3cc(OC)c(OC)c(OC)c3)n2)cc(OC)c1OC`, the IC50 in the assay on DU-145 came to 8.1 µM; in the assay on A549, 6.59 µM; in the assay with HeLa, 17.6 µM.

As to `COc1ccc(/C=C(/C(=O)NCc2cc3c([nH]c4ccccc43)c(-c3cccc(F)c3)n2)c2cc(OC)c(OC)c(OC)c2)cc1OC(C)=O`, the figures for the IC50 with DU-145, with A549 and in the assay with HeLa were 2.46 µM, 3.07 µM and 13.6 µM, respectively.

The record behind these values is ChEMBL document CHEMBL4385621, “Synthesis and in vitro cytotoxicity evaluation of β-carboline-combretastatin carboxamides as apoptosis inducing agents: DNA intercalation and topoisomerase-II inhibition” (Bioorg Med Chem, 2019).
